In patent publication US20220315554A1, “COMPOUNDS COMPRISING A […] LIGAND AND USE THEREOF” (priority 2019, published 2022):

What was measured:
alpha 1A (h) = alpha 1A (h) (Homo sapiens, UniProt P35348); conditions: read-out: Ki Ref, reference compound (positive control)
proteases [1] = target: T1, proteases (Homo sapiens, UniProt P14780, Q279R); assay: biochemical; conditions: 0.1 µM
T1 construct: BPS Biosciences (contract assay)

proteases [2] = target: T2, proteases (Homo sapiens, UniProt P08253); assay: biochemical; conditions: Matrix metalloprotease 2; reference at 100 nM
T2 construct: BPS Biosciences (contract assay)

proteases [3] = target: T3, proteases (Homo sapiens, UniProt P03956); assay: biochemical; conditions: Matrix metalloprotease1; reference at 1 μM
T3 construct: BPS Biosciences (contract assay)

5-HT2B (h) = 5-HT2B (h) (Homo sapiens, UniProt P41595); conditions: read-out: Ki Ref, reference compound (positive control)
proteases [4] = target: T4, proteases (Hepatitis C virus genotype 1b, UniProt P26663, R1181K); assay: biochemical
T4 construct: BPS Biosciences (contract assay)

proteases [5] = target: T5, proteases (Hepatitis C virus genotype 1a, UniProt P27958, D1194V); assay: biochemical
T5 construct: BPS Biosciences (contract assay)

proteases [6] = target: T6, proteases (Hepatitis C virus genotype 2a, UniProt Q99IB8); assay: biochemical; conditions: serine protease NS3 (a.a. 3-181) from Hepatitis C virus genotype 2a; reference at 100 nM
T6 construct: BPS Biosciences (contract assay)

Na+ channel (site 2) = assay: SafetyScreen44: Na+ channel (site 2) (antagonist radioligand); format: binding; conditions: 10 μM
in vivo = conditions: rat, plasma, intravenous; for Vd: rat plasma
Human recombinant FAP [7] = target: T7, Human recombinant FAP (Homo sapiens, UniProt Q12884); assay: Surface plasmon resonance (Biacore) assay; format: binding
T7 sequence (Q12884 1-760): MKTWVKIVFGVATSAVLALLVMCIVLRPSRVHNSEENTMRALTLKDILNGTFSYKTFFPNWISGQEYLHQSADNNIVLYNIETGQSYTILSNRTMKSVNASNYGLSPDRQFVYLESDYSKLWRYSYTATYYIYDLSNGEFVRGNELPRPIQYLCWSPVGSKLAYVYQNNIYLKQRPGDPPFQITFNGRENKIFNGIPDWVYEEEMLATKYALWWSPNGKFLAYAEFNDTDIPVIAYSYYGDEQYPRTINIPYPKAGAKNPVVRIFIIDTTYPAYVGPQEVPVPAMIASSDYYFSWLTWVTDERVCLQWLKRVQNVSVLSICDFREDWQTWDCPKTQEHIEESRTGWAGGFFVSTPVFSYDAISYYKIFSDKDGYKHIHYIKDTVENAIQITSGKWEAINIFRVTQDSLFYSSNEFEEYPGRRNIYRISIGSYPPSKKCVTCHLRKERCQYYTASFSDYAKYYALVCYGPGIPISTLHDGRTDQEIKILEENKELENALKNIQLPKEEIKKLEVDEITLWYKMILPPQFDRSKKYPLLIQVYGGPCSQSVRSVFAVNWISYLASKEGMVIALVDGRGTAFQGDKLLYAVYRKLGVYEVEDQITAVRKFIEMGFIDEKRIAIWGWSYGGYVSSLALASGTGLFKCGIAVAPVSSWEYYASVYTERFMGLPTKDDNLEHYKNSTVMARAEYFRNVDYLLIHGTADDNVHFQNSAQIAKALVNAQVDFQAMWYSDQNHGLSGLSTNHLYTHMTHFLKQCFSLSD

BZD (central) = conditions: 10 μM
NMDA = conditions: 10 μM
[8] = tested on: Ca2+ channel (L, dihydropyridine site); conditions: 10 μM
Human recombinant FAP [9] = target: T7, Human recombinant FAP; assay: FRET-based FAP protease activity assay; format: biochemical; design: purchased R&D systems 3715-SE; conditions: pIC50 Category (Activity), recombinant human FAP, FRET substrate, 37° C.
AR (h) = AR (h) (Homo sapiens, UniProt P10275, T878A); assay: biochemical; conditions: read-out: % Inhibition of Specific Binding
recombinant human PREP = target: T8, recombinant human PREP (Homo sapiens, UniProt P48147); assay: PREP protease activity assay; format: biochemical
T8 construct: purchased R&D systems 4308-SE
T8 sequence (P48147 1-710): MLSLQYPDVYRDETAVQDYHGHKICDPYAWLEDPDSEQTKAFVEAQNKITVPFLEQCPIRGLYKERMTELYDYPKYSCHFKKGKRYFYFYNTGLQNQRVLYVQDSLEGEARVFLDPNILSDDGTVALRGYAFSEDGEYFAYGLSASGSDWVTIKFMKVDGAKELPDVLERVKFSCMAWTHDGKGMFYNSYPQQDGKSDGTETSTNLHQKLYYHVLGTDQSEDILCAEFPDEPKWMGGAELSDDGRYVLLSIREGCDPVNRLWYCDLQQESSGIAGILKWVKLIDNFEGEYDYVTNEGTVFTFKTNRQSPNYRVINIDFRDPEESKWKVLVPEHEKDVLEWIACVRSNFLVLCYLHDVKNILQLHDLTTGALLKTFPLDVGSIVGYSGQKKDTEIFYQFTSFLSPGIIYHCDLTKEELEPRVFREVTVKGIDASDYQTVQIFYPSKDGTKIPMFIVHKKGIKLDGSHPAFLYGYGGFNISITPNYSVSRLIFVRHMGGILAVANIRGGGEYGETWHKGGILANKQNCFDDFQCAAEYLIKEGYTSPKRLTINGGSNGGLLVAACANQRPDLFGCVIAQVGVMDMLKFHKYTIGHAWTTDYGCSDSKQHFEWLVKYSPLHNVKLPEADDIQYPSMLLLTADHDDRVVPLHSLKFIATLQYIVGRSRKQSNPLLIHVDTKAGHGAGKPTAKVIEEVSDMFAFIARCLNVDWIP

KV channel = conditions: 10 μM
Recombinant human DPP4 = target: T9, Recombinant human DPP4 (Homo sapiens, UniProt P27487); assay: DPP4 protease activity assay; format: biochemical
T9 construct: purchased R&D systems 9168-SE

[10] = target: T10, FAP-expressing human WI-38 fibroblasts (Homo sapiens, UniProt Q12884); assay: Competitive FACS binding assay; conditions: pIC50 Category (FACS), competition with 3 nM Cy5-labeled compound, WI-38 fibroblasts, 4° C., 1 hour
T10 construct: FAP-expressing human WI-38 fibroblasts (ECACC) were cultured in EMEM; host or cells: WI-38 human fibroblasts
T10 sequence (Q12884 1-760): T7 sequence (Q12884 1-760)
Method: Cells were analyzed in an Attune NxT flow cytometer. […]

proteases [11] = target: T11, proteases (Hepatitis C virus genotype 1b, UniProt P26663); assay: biochemical; conditions: read-out: Percentage inhibition (%)
T11 construct: BPS Biosciences (contract assay)

proteases [12] = target: T12, proteases (Hepatitis C virus genotype 1b, UniProt P26663, D1194V); assay: biochemical; conditions: read-out: Percentage inhibition (%)
T12 construct: BPS Biosciences (contract assay)

proteases [13] = target: T13, proteases (Hepatitis C virus genotype 1b, UniProt P26663, R1181Q); assay: biochemical; conditions: read-out: Percentage inhibition (%)
T13 construct: BPS Biosciences (contract assay)

hERG potassium channel = hERG potassium channel (Homo sapiens, UniProt Q12809); assay: in vitro
[14] = Plasma stability assay, human plasma; format: in vitro ADME; conditions: 24 h incubation, 37° C., read-out: % intact compound remaining after incubation, Human plasma
in vitro = conditions: rat, plasma
HEK-FAP tumors = assay: Efficacy study HEK-FAP tumors; conditions: throughout the study
Sarc4809 PDX tumors = assay: Efficacy study sarcoma Sarc4809 PDX model; conditions: throughout the study
proteases [15] = target: T14, proteases (Homo sapiens, UniProt O60911); assay: biochemical; conditions: Cathepsin V; reference at 100 nM
T14 construct: BPS Biosciences (contract assay)

proteases [16] = target: proteases (Homo sapiens, UniProt P07858); assay: biochemical; conditions: Cathepsin B; reference at 100 nM
proteases [17] = target: T15, proteases (Homo sapiens, UniProt P25774); assay: biochemical; conditions: Cathepsin S; reference at 100 nM
T15 construct: BPS Biosciences (contract assay)

proteases [18] = target: T16, proteases (Homo sapiens, UniProt P07711); assay: biochemical; conditions: Cathepsin L; reference at 1 μM
T16 construct: BPS Biosciences (contract assay)

proteases [19] = target: T17, proteases (Homo sapiens, UniProt Q9UBX1); assay: biochemical; conditions: Cathepsin F; reference at 1 μM
T17 construct: BPS Biosciences (contract assay)

proteases [20] = target: T18, proteases (Homo sapiens, UniProt P55210); assay: biochemical; conditions: Caspase-7; reference at 1 μM
T18 construct: BPS Biosciences (contract assay)

proteases [21] = target: T19, proteases (Homo sapiens, UniProt P42574); assay: biochemical; conditions: Caspase-3; reference at 100 nM
T19 construct: BPS Biosciences (contract assay)

proteases [22] = target: T20, proteases (Homo sapiens, UniProt P55212); assay: biochemical; conditions: Caspase-6; reference at 1 μM
T20 construct: BPS Biosciences (contract assay)

proteases [23] = target: T21, proteases (Homo sapiens, UniProt Q14790); assay: biochemical; conditions: Caspase-8; reference at 100 nM
T21 construct: BPS Biosciences (contract assay)

[24] = read-out: Percentage inhibition (%)

## COc1cccc(OC)c1OCCNCC1COc2ccccc2O1 (stereo not drawn) [WB 4101]
Alpha 1A (h)
  Ki: 0.24 nM

## COc1ccc(S(=O)(=O)N(CC(=O)NO)CC(C)C)cc1 [NNGH]
Proteases [1]
  Percentage inhibition (%) Reference: 92%
Proteases [2]
  Percentage inhibition (%) Reference: 95%
Proteases [3]
  Percentage inhibition (%) Reference: 87%

## COc1cc(CC(C)N)c(OC)cc1I (racemic) [(±)DOI]
5-HT2B (h)
  Ki: 4.2 nM

## CC(C)(C)OC(=O)N[C@H]1CCCCC/C=C\[C@@H]2C[C@@]2(C(=O)NS(=O)(=O)C2CC2)NC(=O)[C@@H]2C[C@@H](OC(=O)N3Cc4cccc(F)c4C3)CN2C1=O [Denoprevir]
Proteases [4]; serine protease NS3 (a.a. 3-181) from Hepatitis C virus genotype 1b (mutant R155K), reference at 100 nM
  Percentage inhibition (%) Reference: 90%
Proteases [5]; serine protease NS3 (a.a. 3-181) from Hepatitis C virus genotype 1a (mutant D168 V), reference at 100 nM
  Percentage inhibition (%) Reference: 94%
Proteases [6]
  Percentage inhibition (%) Reference: 98%

## CCCCCC(=O)N[C@H]1CSCc2cc(CSCCNC(=O)CN3CCN(CC(=O)O)CCN(CC(=O)O)CCN(CC(=O)O)CC3)cc(c2)CSC[C@@H](C(=O)O)NC(=O)[C@H](Cc2ccccc2)NC(=O)[C@H](CCC(N)=O)NC(=O)[C@H]([C@@H](C)O)NC(=O)[C@@H]2CCCN2C(=O)[C@@H]2CCCN2C1=O [3BP-3554, Hex-[Cys(tMeBn(DOTA-AET))-Pro-Pro-Thr-Gln-Phe-Cys]-OH]
Na+ channel (site 2)
  % Inhibition of Specific Binding: 14%
In vivo; 2 nmol/kg
  AUC(0-inf): 0.0081 µM·h
  C0: 10.3 nM
  clearance: 4.13 mL/min/kg
  half-life: 54 min
In vivo; 2 nmol/kg, Vss, 2 nmol/kg
  Vd: 0.28 L/kg
In vivo; 2 nmol/kg, Vz
  Vd: 0.32 L/kg
In vivo; 20 nmol/kg
  AUC(0-inf): 0.069 µM·h
  C0: 111 nM
  clearance: 4.85 mL/min/kg
  half-life: 50 min
In vivo; 20 nmol/kg, Vss, 20 nmol/kg
  Vd: 0.3 L/kg
In vivo; 20 nmol/kg, Vz
  Vd: 0.35 L/kg
In vivo; 200 nmol/kg
  AUC(0-inf): 0.726 µM·h
  C0: 1480 nM
  clearance: 4.58 mL/min/kg
  half-life: 63 min
In vivo; 200 nmol/kg, Vss, 200 nmol/kg
  Vd: 0.17 L/kg
In vivo; 200 nmol/kg, Vz
  Vd: 0.42 L/kg
Human recombinant FAP [7]
  Kd: < 10 nM
BZD (central)
  % Inhibition of Specific Binding: 5%
NMDA
  % Inhibition of Specific Binding: 1%
[8]
  % Inhibition of Specific Binding: 54%
Human recombinant FAP [9]
  IC50: < 10 nM
AR (h)
  inhibition at 10 µM: -5%
Recombinant human PREP
  IC50: > 1000 nM
KV channel
  % Inhibition of Specific Binding: 4%
Recombinant human DPP4
  IC50: > 1000 nM
[10]
  IC50: < 10 nM
Proteases [11]
  inhibition at 1 µM: -5%
  inhibition at 10 µM: -9%
Proteases [4]; [24]
  inhibition at 1 µM: -1%
  inhibition at 10 µM: 0%
Proteases [12]
  inhibition at 1 µM: -2%
  inhibition at 10 µM: -17%
Proteases [5]; [24]
  inhibition at 1 µM: -39%
Proteases [13]
  inhibition at 1 µM: 0%
  inhibition at 10 µM: -5%
hERG potassium channel
  inhibition at 10 µM: 6%
[14]
  remaining at 24 h, 9.8 µM: 100%
In vitro
  remaining at 24 h, 9.8 µM: 100%

## CCCCCC(=O)N[C@H]1CSCc2cc(CSCCNC(=O)CN3CCN(CC(=O)O)CCN(CC(=O)O)CCN(CC(=O)O)CC3)cc(c2)CSC[C@@H](C(=O)O)NC(=O)[C@H](Cc2ccccc2)NC(=O)[C@H](CCC(N)=O)NC(=O)[C@H]([C@@H](C)O)NC(=O)[C@@H]2CCCN2C(=O)[C@@H]2CCCN2C1=O [^177Lu-3BP-3554, metal not drawn]
HEK-FAP tumors
  treatment-related body weight loss: No treatment-related body weight loss
Sarc4809 PDX tumors
  treatment-related body weight loss (BWL): No treatment-related body weight loss

## CC(C)C[C@H](NC(=O)[C@H]1O[C@@H]1C(=O)O)C(=O)NCCCCN=C(N)N [E-64]
Proteases [15]
  Percentage inhibition (%) Reference: 83%
Proteases [16]
  Percentage inhibition (%) Reference: 97%
Proteases [17]
  Percentage inhibition (%) Reference: 91%
Proteases [18]
  Percentage inhibition (%) Reference: 97%

## Cystatin C
Proteases [19]
  Percentage inhibition (%) Reference: 74%

## COC[C@@H]1CCCN1S(=O)(=O)c1ccc2c(c1)C(=O)C(=O)N2 [Caspase 3/7 Inhibitor I]
Proteases [20]
  Percentage inhibition (%) Reference: 92%
Proteases [21]
  Percentage inhibition (%) Reference: 89%

## Caspase 8 Inhibitor I
Proteases [22]
  Percentage inhibition (%) Reference: 94%
Proteases [23]
  Percentage inhibition (%) Reference: 87%
